The source of these data is patent publication US8269000B2, “Substituted pyrimidine and triazine compounds” (Gruenenthal GmbH, priority 2008, dated 2012).

The experiment has as its target T1, rat B1R (Rattus norvegicus, UniProt P97583).
T1 construct: expressed in transfected cells; host or cells: CHO K1 cells
T1 sequence (P97583 1-337): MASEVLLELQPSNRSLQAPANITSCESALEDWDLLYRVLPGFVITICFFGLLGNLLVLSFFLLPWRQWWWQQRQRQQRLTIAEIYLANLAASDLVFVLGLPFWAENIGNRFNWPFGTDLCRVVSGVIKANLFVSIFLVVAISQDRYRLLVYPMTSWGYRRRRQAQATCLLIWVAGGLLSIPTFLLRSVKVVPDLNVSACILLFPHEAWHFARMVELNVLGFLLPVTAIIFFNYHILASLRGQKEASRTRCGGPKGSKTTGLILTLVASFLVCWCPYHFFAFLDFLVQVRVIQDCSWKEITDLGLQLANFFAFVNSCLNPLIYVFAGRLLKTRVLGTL
The experiment can be described thus: FLIPR Ca2+ functional study on bradykinin receptor 1 (rB1R CHO K1 cells). The experiment is classed as cell-based. The settings on record: for inhibition at 10 µM: CHO-K1, % inhibition rat B1R at 10 μM, read-out: % inh. (rat B1R) 10 μM. The procedure, abridged:
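Antagonism was calculated as % of maximal inhibition of the Ca2+ rise triggered by agonist at EC80 (Lys-Des-Arg9-bradykinin for hB1R, Des-Arg9-bradykinin for rB1R), added 10-20 min after test compound (10 μM or serial dilutions for IC50) to Fluo-4-loaded transfected CHO K1 cells on FLIPR. Duplicates or triplicates, ≥2 independent runs.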

Turning to `COc1cc(C)c(S(=O)(=O)N(C)CCOc2nccc(N3CCC4(CC3)C(=O)NCN4c3ccccc3)n2)c(C)c1` [G_CC-030, 4-methoxy-N,2,6-trimethyl-N-[2-[[4-(1-oxo-4-phenyl-2,4,8-triazaspiro[4.5]decan-8-yl)-2-pyrimidinyl]oxy]ethyl]benzenesulfonamide], the inhibition at 10 µM worked out at 79%.
On the same count and under the same terms, next, `COc1cc(C)c(S(=O)(=O)N2CCC[C@H]2COc2nccc(N3CCC(n4c(=O)[nH]c5cc(Cl)ccc54)CC3)n2)c(C)c1` [G_CC-034, 6-chloro-3-[1-[2-[[(2S)-1-(4-methoxy-2,6-dimethylphenyl)sulfonyl-2-pyrrolidinyl]methoxy]-4-pyrimidinyl]-4-piperidinyl]-1H-benzimidazol-2-one]: 93%; `COc1cc(C)c(S(=O)(=O)N2CCC[C@H]2COc2nccc(N3CCC4(CC3)OCc3ccccc34)n2)c(C)c1` [G_CC-033, 1′-[2-[[(2S)-1-(4-methoxy-2,6-dimethylphenyl)sulfonyl-2-pyrrolidinyl]methoxy]-4-pyrimidinyl]spiro[1H-isobenzofuran-3,4′-piperidine]]: 68%.
Same read-out and setting: in the case of `COc1cc(C)c(S(=O)(=O)N2CCCCC2COc2nccc(N3CCN(c4ncccn4)CC3)n2)c(C)c1` (stereo not shown) [G_CC-012, 2-[[1-(4-methoxy-2,6-dimethylphenyl)sulfonyl-2-piperidinyl]methoxy]-4-[4-(2-pyrimidinyl)-1-piperazinyl]pyrimidine] it was 76%; in that of `COc1cc(C)c(S(=O)(=O)N2CCC[C@H]2COc2nccc(N3CCC4(CC3)C(=O)NCC4c3cccc(C(F)(F)F)c3)n2)c(C)c1` (stereo partly drawn) [G_CC-049, 8-[2-[[(2S)-1-(4-methoxy-2,6-dimethylphenyl)sulfonyl-2-pyrrolidinyl]methoxy]-4-pyrimidinyl]-1-[3-(trifluoromethyl)phenyl]-3,8-diazaspiro[4.5]decan-4-one], 72%.
Same read-out and setting: next, `COc1cc(C)c(S(=O)(=O)N2CCCCC2COc2nccc(N3CCC(c4ccccc4)(N(C)C)CC3)n2)c(C)c1` (stereo not shown) [G_CC-113, [1-[2-[[1-[(4-methoxy-2,6-dimethyl-phenyl)sulfonyl]-piperidin-2-yl]-methoxy]-pyrimidin-4-yl]-4-phenyl-piperidin-4-yl]-dimethyl-amine]: 79%.
Turning to `COc1cc(C)c(S(=O)(=O)N2CCC[C@H]2COc2ccnc(N(C)CCCN3CCC(c4ccccc4)(N(C)C)CC3)n2)c(C)c1` [H_CC-046, 3-(4-dimethylamino-4-phenyl-piperidin-1-yl)-propyl-[4-[[(2S)-1-[(4-methoxy-2,6-dimethyl-phenyl)sulfonyl]-pyrrolidin-2-yl]-methoxy]-pyrimidin-2-yl]-methyl-amine], the inhibition at 10 µM turned out to be 89%.
Same read-out and setting: next, `COc1cc(C)c(S(=O)(=O)N(C)CCOc2nccc(N(C)CCN3CCC(c4ccccc4)(N4CCCC4)CC3)n2)c(C)c1` [G_CC-119, 4-methoxy-N,2,6-trimethyl-N-[2-[4-[methyl-[2-(4-phenyl-4-pyrrolidin-1-yl-piperidin-1-yl)-ethyl]-amino]-pyrimidin-2-yl]oxy-ethyl]benzenesulfonic acid amide]: 79%; `COc1cc(C)c(S(=O)(=O)N2CCCCC2COc2nccc(N3CCC(CCCN4CCCC4)(c4cccnc4)CC3)n2)c(C)c1` (stereo not shown) [G_CC-080, 2-[[1-[(4-methoxy-2,6-dimethyl-phenyl)sulfonyl]-piperidin-2-yl]-methoxy]-4-[4-pyridin-3-yl-4-(3-pyrrolidin-1-yl-propyl)-piperidin-1-yl]-pyrimidine]: 103%; `COc1cc(C)c(S(=O)(=O)N2CCC[C@H]2COc2ccnc(N3CCC(O)(c4ccccn4)CC3)n2)c(C)c1` [H_CC-047, 1-[4-[[(2S)-1-[(4-methoxy-2,6-dimethyl-phenyl)sulfonyl]-pyrrolidin-2-yl]-methoxy]-pyrimidin-2-yl]-4-pyridin-2-yl-piperidin-4-ol]: 85%.
The same measure, in the same setting: in the case of `COc1cc(C)c(S(=O)(=O)N2CCCCC2COc2ccnc(N3CCC(c4cccc(F)c4)(N4CCN(C)CC4)CC3)n2)c(C)c1` (stereo not shown) [H_CC-091, 2-[4-(3-fluorophenyl)-4-(4-methyl-piperazin-1-yl)-piperidin-1-yl]-4-[[1-[(4-methoxy-2,6-dimethyl-phenyl)sulfonyl]-piperidin-2-yl]-methoxy]-pyrimidine] it was 73%.
As for `COc1cc(C)c(S(=O)(=O)N2CCC[C@H]2COc2ccnc(N3CCC(c4cccs4)(N(C)C)CC3)n2)c(C)c1` [H_CC-086, [1-[4-[[(2S)-1-[(4-methoxy-2,6-dimethyl-phenyl)sulfonyl]-pyrrolidin-2-yl]-methoxy]-pyrimidin-2-yl]-4-thiophen-2-yl-piperidin-4-yl]-dimethyl-amine], the inhibition at 10 µM was 66%.
Still for that read-out and setting: next, `COc1cc(C)c(S(=O)(=O)N(C)C(COc2nccc(N3CCC(c4cccc(F)c4)(N4CCN(C)CC4)CC3)n2)c2ccccc2)c(C)c1` (stereo not shown) [G_CC-135, N-[2-[4-[4-(3-fluorophenyl)-4-(4-methyl-piperazin-1-yl)-piperidin-1-yl]-pyrimidin-2-yl]oxy-1-phenyl-ethyl]-4-methoxy-N,2,6-trimethyl-benzenesulfonic acid amide]: 53%.
On the same count and under the same terms, next, `CCCCC1(N(C)C)CCN(c2nccc(OCC3CCCCN3S(=O)(=O)c3c(C)cc(OC)cc3C)n2)CC1` (stereo not shown) [H_CC-062, [4-butyl-1-[4-[[1-[(4-methoxy-2,6-dimethyl-phenyl)sulfonyl]-piperidin-2-yl]-methoxy]-pyrimidin-2-yl]-piperidin-4-yl]-dimethyl-amine]: 73%.
On the same count and under the same terms, in the case of `COc1cc(C)c(S(=O)(=O)N2CC(Oc3nccc(N4CCC(c5ccccc5)(N5CCCC5)CC4)n3)C2)c(C)c1` [G_CC-122, 2-[1-[(4-methoxy-2,6-dimethyl-phenyl)sulfonyl]-azetidin-3-yl]oxy-4-(4-phenyl-4-pyrrolidin-1-yl-piperidin-1-yl)-pyrimidine] it was 51%.
Consider `COc1cc(C)c(S(=O)(=O)N(C)CCOc2nccc(N3CCN(CC4CCN(C)CC4)CC3)n2)c(C)c1` [G_CC-007, 4-methoxy-N,2,6-trimethyl-N-[2-[[4-[4-[(1-methyl-4-piperidinyl)methyl]-1-piperazin]-2-pyrimidinyl]oxy]ethyl]benzenesulfonamide], for which the “% inh. (rat B1R) 10 μM” value (% inhibition rat B1R at 10 μM) was found to be 95%.
As to `COc1cc(C)c(S(=O)(=O)N2CCCCC2COc2nccc(N(C)CCCN3CCC(c4ccccc4)(N(C)C)CC3)n2)c(C)c1` (stereo not shown) [G_CC-101, 3-(4-dimethylamino-4-phenyl-piperidin-1-yl)-propyl-[2-[[1-[(4-methoxy-2,6-dimethyl-phenyl)sulfonyl]-piperidin-2-yl]-methoxy]-pyrimidin-4-yl]-methyl-amine], the inhibition at 10 µM was determined as 105%.
Same read-out and setting: in the case of `COc1cc(C)c(S(=O)(=O)N2c3ccccc3C[C@H]2COc2ccnc(N3CCN(C)CC3)n2)c(C)c1` [H_CC-016, (2S)-1-(4-methoxy-2,6-dimethylphenyl)sulfonyl-2-[[2-(4-methyl-1-piperazinyl)-4-pyrimidinyl]oxymethyl]indoline] it was 67%; in that of `COc1cc(C)c(S(=O)(=O)N2CCCC(Oc3ccnc(N4CCC(CCN5CCCCC5)CC4)n3)C2)c(C)c1` (stereo not shown) [H_CC-041, 4-[[1-(4-methoxy-2,6-dimethylphenyl)sulfonyl-3-piperidinyl]oxy]-2-[4-[2-(1-piperidyl)ethyl]-1-piperidinyl]pyrimidine], 48%.
